Experimental data from patent US7629471B2, “Transcriptional factor, process for producing the same and use thereof” (NRL Pharma, Inc., priority 2003, dated 2009).
Values joined by “and” are separate entries in the source; they are usually repeats but may differ in a detail not shown here. Equal values may be shown once. Read-outs that look alike come from different tables or passages of the source. Marks after values point to notes of the source that are not given here.

Tests used:
ICR male mice = assay type: in vivo; conditions: added at 0.1% to feed, 1 week; control group 143
Source text: Fifty ICR male mice (5 weeks of age) were randomly divided into 5 groups of 10 animals each and housed in polycarbonate cages at 5 animals per cage. […] […] After 1 week, the blood was collected from the heart of each mouse to determine the level of serum total cholesterol by an enzymatic method.

rodents [1] = conditions: rodents (mice, rats); cited from earlier work
rodents [2] = conditions: cited from earlier work
hypertensive rat models = conditions: cited from earlier work
C57BL/ksj db/db mice = experiment: Effect on genetically obese diabetic mice: urinary sugar excretion (Example 6); assay type: in vivo
Method: A solution of Compound-16 (1 g) in acetone (about 50 ml) was sprinkled over and mixed well with 1 kg of rodent standard feed (CE-2, CLEA Japan, Inc., Japan), followed by air-drying in a chamber. The content of Compound-16 in this feed was about 0.1%. In the same manner, pellet chow samples containing 0.05% to 0.025% of Compound-16 were prepared and used for the experiment. To prepare control feed, the same powder feed was sprinkled with acetone and palletized. Twenty male db/db mice (8 weeks of age after birth) were randomly divided into 4 groups. Each group was housed in a cage for urine collection and fed with the Compound-16-containing feed or the control feed for 21 days. During the housing, the mice were allowed to take feed and water ad libitum and their urine was collected at the intervals indicated in Table 1 to determine urinary sugar excretion by an enzymatic method. The level of urinary sugar excretion was expressed as the mean per animal.

Male ICR mice = experiment: Effect on serum total cholesterol: in-feed vs forced oral administration (Table 1); assay type: in vivo; conditions: 1 week, n = 6, tested in triplicate
Source text: In contrast, the solubility of Compound-1 in water is as extremely low as about 0.7 g/l; Compounds-1 and -2 are poles apart in terms of solubility in water. […] However, even when both compounds are simply mixed in a mechanical manner into feed in an amount of 0.1% or even when both compounds are given for forced oral administration in the same drug amount calculated from feed intake, there is no reproducibility in their efficacy unlike the case where their acetone solutions are sprayed over feed.

db/db mice = experiment: Urinary sugar excretion in db/db mice: in-feed vs forced oral administration (Table 1); assay type: in vivo; conditions: for % Reduction of urinary sugar excretion: n = 4, tested in triplicate
[3] = cited from earlier work
aromatase = target: T1, aromatase (Homo sapiens, UniProt P11511); conditions: cited from earlier work
T1 sequence (P11511 1-503): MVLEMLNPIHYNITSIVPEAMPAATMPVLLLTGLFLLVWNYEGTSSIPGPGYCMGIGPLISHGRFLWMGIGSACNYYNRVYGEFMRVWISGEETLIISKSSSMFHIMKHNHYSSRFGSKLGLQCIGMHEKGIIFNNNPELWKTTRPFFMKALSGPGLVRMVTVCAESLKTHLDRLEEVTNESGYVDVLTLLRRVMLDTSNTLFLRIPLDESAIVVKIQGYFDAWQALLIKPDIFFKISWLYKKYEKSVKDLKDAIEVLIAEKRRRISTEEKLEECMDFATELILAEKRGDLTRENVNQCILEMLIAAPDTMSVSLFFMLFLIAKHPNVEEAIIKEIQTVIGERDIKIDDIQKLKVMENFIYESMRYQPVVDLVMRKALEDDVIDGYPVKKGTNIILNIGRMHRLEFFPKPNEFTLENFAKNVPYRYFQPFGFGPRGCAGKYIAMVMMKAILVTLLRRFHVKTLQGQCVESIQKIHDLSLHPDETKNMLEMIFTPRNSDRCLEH

Ras farnesylation = conditions: cited from earlier work
animal virus = conditions: without affecting nucleic acid and protein biosynthesis; cited from earlier work
[4] = tested on: mice starved for a 48-hour period; conditions: trace amount by oral route 2 hours before feed intake; 2-hour intake time; mice starved 48 hours; cited from earlier work
[5] = tested on: arthritis in rats induced by adjuvant injection; conditions: adjuvant injection into footpads; cited from earlier work
[6] = Spraying of acetone solution over feed, 0.1% in feed
[7] = Mechanical mixing into feed, 0.1%

Question: With `CC(/C=C/[C@@]1(C)[C@H](C)CCC(=O)[C@@H]1C)=C\Cc1c(O)c(Cl)c(C)c(C=NCC(N)=O)c1O` [Compound-13] as the molecule, how does the Serum total cholesterol (ICR male mice) read?
Answer: 112** mg/dl

Question: Which Serum cholesterol lowering (rodents [1]) does the source give for `C/C(=C\Cc1c(O)c(Cl)c(C)c(C=O)c1O)CC/C=C(\C)[C@@H]1CC(=O)C(C)(C)O1` [ascofuranone] here?
Answer: serum cholesterol-lowering effect

Question: What about the Anticancer effect (rodents [2]) of the same molecule?
Answer: anticancer effect

Question: What about the “Progression to renal failure” value (hypertensive rat models) of the same molecule?
Answer: prevent hypertensive rat models from entering renal failure

Question: What does the source list for `CC(=O)N[C@@H](CCCCN=Cc1c(C)c(Cl)c(O)c(C/C=C(C)/C=C/[C@@]2(C)[C@H](C)CCC(=O)[C@@H]2C)c1O)C(=O)O` [Compound-16]?
Answer: Level of urinary sugar excretion (C57BL/ksj db/db mice; 0.025% in feed, 0 days (24 h urine beginning 1 day before initiation, baseline)): 890 mg/mouse/day; Level of urinary sugar excretion (C57BL/ksj db/db mice; 0.025% in feed, 1 day): 600 mg/mouse/day; Level of urinary sugar excretion (C57BL/ksj db/db mice; 0.025% in feed, 3 days): 452 mg/mouse/day; Level of urinary sugar excretion (C57BL/ksj db/db mice; 0.025% in feed, 7 days): 175 mg/mouse/day; Level of urinary sugar excretion (C57BL/ksj db/db mice; 0.025% in feed, 14 days): 201 mg/mouse/day; Level of urinary sugar excretion (C57BL/ksj db/db mice; 0.025% in feed, 21 days): 134 mg/mouse/day; Level of urinary sugar excretion (C57BL/ksj db/db mice; 0.05% in feed, 0 days (24 h urine beginning 1 day before initiation, baseline)): 786 mg/mouse/day; Level of urinary sugar excretion (C57BL/ksj db/db mice; 0.05% in feed, 1 day): 541 mg/mouse/day; Level of urinary sugar excretion (C57BL/ksj db/db mice; 0.05% in feed, 3 days): 231 mg/mouse/day; Level of urinary sugar excretion (C57BL/ksj db/db mice; 0.05% in feed, 7 days): 253 mg/mouse/day; Level of urinary sugar excretion (C57BL/ksj db/db mice; 0.05% in feed, 14 days): 170 mg/mouse/day; Level of urinary sugar excretion (C57BL/ksj db/db mice; 0.05% in feed, 21 days): 52 mg/mouse/day; Level of urinary sugar excretion (C57BL/ksj db/db mice; 0.1% in feed, 0 days (24 h urine beginning 1 day before initiation, baseline)): 814 mg/mouse/day; Level of urinary sugar excretion (C57BL/ksj db/db mice; 0.1% in feed, 1 day): 187 mg/mouse/day; Level of urinary sugar excretion (C57BL/ksj db/db mice; 0.1% in feed, 3 days): 30 mg/mouse/day; Level of urinary sugar excretion (C57BL/ksj db/db mice; 0.1% in feed, 7 days): 15 mg/mouse/day; Level of urinary sugar excretion (C57BL/ksj db/db mice; 0.1% in feed, 14 days): 10 mg/mouse/day; Level of urinary sugar excretion (C57BL/ksj db/db mice; 0.1% in feed, 21 days): 10 mg/mouse/day

Question: For `CC(C=CC1(C)C(C)CCC(=O)C1C)=CCc1c(O)c(C=O)c(C)c(Cl)c1OCC(=O)O` (centres unmarked) [Compound-2, 4-O-carboxymethylascochlorin], which “Decrease in serum cholesterol levels” value (Male ICR mice; [6]) is on record?
Answer: 17.5%-22.7% decrease, P < 0.01

Question: What about the Toxic death (db/db mice; Forced oral administration, db/db mice, deaths/animals in first, second, third test) of the same molecule?
Answer: 2/4 in the first test and 1/4 in the second test and 1/4 in the third test

Question: What about the “% Reduction of urinary sugar excretion” value (db/db mice; Forced oral administration) of the same molecule?
Answer: Not effective

Question: And the Body weight gain (db/db mice; Mechanical mixing into feed, db/db mice)?
Answer: body weight gain is inhibited.

Question: What about the “Amount dissolved in water” value (Solubility in water; in the small intestine (pH 7.2 to 7.4)) of the same molecule?
Answer: ≥ 6%

Question: Which results are given for `COc1c(Cl)c(C)c(C=O)c(O)c1C/C=C(C)/C=C/[C@@]1(C)[C@H](C)CCC(=O)[C@@H]1C` [Compound-1, 4-O-methylascochlorin]?
Answer: Decrease in serum cholesterol levels (Male ICR mice; Forced oral administration, same drug amount calculated from feed intake): No decrease in all three; Decrease in serum cholesterol levels (Male ICR mice; [7]): No decrease in all three tests; Decrease in serum cholesterol levels (Male ICR mice; [6]): 15.2%-25.1% decrease, P < 0.01; % Reduction of urinary sugar excretion (db/db mice; [7]): No inhibitory effect is observed; Progression to renal failure (hypertensive rat models): prevent hypertensive rat models from entering renal failure; Absorption from the digestive tract ([3]; orally administered to small animals (rats, mice) in the fasting state): most of them pass through the digestive tract without being absorbed; Solubility in water (Solubility in water): about 0.7 g/l; Solubility in water (in words) (Solubility in water): substantially insoluble in water

Question: For `CC(=O)N[C@@H](CCCCN=Cc1c(C)c(Cl)c(OCC(=O)O)c(C/C=C(C)/C=C/[C@@]2(C)[C@H](C)CCC(=O)[C@@H]2C)c1O)C(=O)O` [Compound-19], which Serum total cholesterol (ICR male mice) is on record?
Answer: 95** mg/dl

Question: For `CC(/C=C/[C@@]1(C)[C@H](C)C=CC(=O)[C@@H]1C)=C\Cc1c(O)c(Cl)c(C)c(C=O)c1O` [cylindrochlorin], which Aromatase inhibition (aromatase) is on record?
Answer: strong inhibitory substance

Question: What about the Serum cholesterol lowering (rodents [1]) of the same molecule?
Answer: stronger effect of lowering serum cholesterol

Question: For `CC(C=C[C@]1(C)[C@H](C)C(=O)CC[C@@H]1C)=CCc1c(O)c(Cl)c(C)c(C=O)c1O` [Ascochlorin, 3-[5-[1(R),2(S),6(S)-trimethyl-3-oxocyclohexyl]-3-methyl-2,4-pentadienyl]-2,4-dihydroxy-5-chloro-6-methylbenzaldehyde], which “Inhibition of Ras farnesylation” value (Ras farnesylation) is on record?
Answer: inhibited Ras farnesylation

Question: And the Animal virus growth (animal virus)?
Answer: arrests animal virus growth

Question: What about the Serum cholesterol lowering (rodents [1]) of the same molecule?
Answer: effect of lowering serum cholesterol

Question: What about the “Anorectic effect (feed intake)” value [4] of the same molecule?
Answer: half inhibition of feed intake

Question: What about the Inflammatory swelling [5] of the same molecule?
Answer: alleviating inflammatory swelling

Question: And the “Absorption from the digestive tract” value ([3]; in vivo, po)?
Answer: most of them pass through the digestive tract without being absorbed
